pIC50: −log10 of the molar value.
Tests used:
[1] = biological target: T1, Na^+/K^+ ATPase-alpha1 isoform purified from dog kidneys (Canis lupus familiaris, UniProt P50997); assay: Na+/K+ ATPase activity inhibition, purified dog kidney enzyme (32P-ATP hydrolysis); type: biochemical
T1 construct: excised from 1–3-year-old male beagle dogs; from tissue; host or cells: dog (beagle) kidney outer medulla, Jørgensen purification
Protocol: Compounds were tested in a concentration range from 10^–9 to 10^–4 M on a purified renal Na^+/K^+ ATPase preparation with a specific activity of 14 μmol/min/mg protein.
Figure 2 Na^+/K^+ ATPase activity inhibition in a dog purified enzyme preparation. All compounds were tested in a concentration range from 10^–9 to 10^–4 M in comparison to ouabain.
The inhibitory effect of compounds was tested at multiple concentrations on Na^+/K^+ ATPase-alpha1 isoform purified from dog kidneys. […]
Renal Na+/K+ ATPase purification and activity
Purification of renal Na+/K+ ATPase was performed according to the method of Jørgensen2. Kidneys were excised from 1–3-year-old male beagle dogs, obtained from the General Pharmacology Department of Sigma-tau, Pomezia, Italy, under pentobarbital anesthesia. Kidneys were sliced and the outer medulla was dissected, pooled and suspended (1g in 10 ml) in a sucrose-histidine solution, containing 250 mM sucrose, 30 mM histidine and 5 mM EDTA, pH 7.2 and homogenized. The homogenate was centrifuged at 6,000 g for 15 min, the supernatant was decanted and centrifuged at 48,000 g for 30 min. The pellet was suspended in the sucrose-histidine buffer and incubated for 20 min with a sodium-dodecyl-sulphate (SDS) solution, dissolved in a gradient buffer, containing 25 mM imidazole and 1 mM EDTA, pH 7.5. The sample was layered on the top of a sucrose discontinuous gradient (10, 15 and 29.4%) and centrifuged at 60,000 g for 115 min. The final pellet was suspended in the gradient buffer.
Na+/K+ ATPase activity was assayed by measuring 32P-ATP hydrolysis, as previously described3.
Increasing concentrations of the standard ouabain, or tested compound, were incubated with 0.3 μg of purified dog kidney enzyme for 10 min at 37°C in 120 μl final volume of a medium, containing 140 mM NaCl, 3 mM MgCl2, 50 mM Hepes-Tris, 3 mM ATP, pH 7.5. Then, 10 μl of incubation solution containing 10 mM KCl and 20 nCi of 32P-ATP (3-10 Ci/mmol, Perkin Elmer) were added, the reaction continued for 15 min at 37°C and was stopped by acidification with 20% ice-cold perchloric acid.
32P was separated by centrifugation with activated Charcoal (Norit A, Serva) and the radioactivity was measured. Effects of increasing concentrations of the tested compound were compared to ouabain, as positive standard, and to vehicle (control) at 37°C. The inhibitory activity was expressed as percent of activity in control. The concentration of compound causing 50% inhibition of the Na+/K+ ATPase activity (IC50) was calculated by non-linear fitting of data points (KaleidagraphTM, Sinergy Software). […]

SERCA2a [2] = biological target: T2, SERCA2a (Rattus norvegicus, UniProt P11507); assay: SERCA2a ATPase activity in cardiac SR homogenates from healthy rats; type: biochemical
T2 construct: tissues from healthy and STZ rats were homogenized; from tissue; host or cells: Sprague Dawley rat left ventricle homogenates (healthy or STZ-diabetic)
T2 sequence (P11507 1-997 isoform P11507-2): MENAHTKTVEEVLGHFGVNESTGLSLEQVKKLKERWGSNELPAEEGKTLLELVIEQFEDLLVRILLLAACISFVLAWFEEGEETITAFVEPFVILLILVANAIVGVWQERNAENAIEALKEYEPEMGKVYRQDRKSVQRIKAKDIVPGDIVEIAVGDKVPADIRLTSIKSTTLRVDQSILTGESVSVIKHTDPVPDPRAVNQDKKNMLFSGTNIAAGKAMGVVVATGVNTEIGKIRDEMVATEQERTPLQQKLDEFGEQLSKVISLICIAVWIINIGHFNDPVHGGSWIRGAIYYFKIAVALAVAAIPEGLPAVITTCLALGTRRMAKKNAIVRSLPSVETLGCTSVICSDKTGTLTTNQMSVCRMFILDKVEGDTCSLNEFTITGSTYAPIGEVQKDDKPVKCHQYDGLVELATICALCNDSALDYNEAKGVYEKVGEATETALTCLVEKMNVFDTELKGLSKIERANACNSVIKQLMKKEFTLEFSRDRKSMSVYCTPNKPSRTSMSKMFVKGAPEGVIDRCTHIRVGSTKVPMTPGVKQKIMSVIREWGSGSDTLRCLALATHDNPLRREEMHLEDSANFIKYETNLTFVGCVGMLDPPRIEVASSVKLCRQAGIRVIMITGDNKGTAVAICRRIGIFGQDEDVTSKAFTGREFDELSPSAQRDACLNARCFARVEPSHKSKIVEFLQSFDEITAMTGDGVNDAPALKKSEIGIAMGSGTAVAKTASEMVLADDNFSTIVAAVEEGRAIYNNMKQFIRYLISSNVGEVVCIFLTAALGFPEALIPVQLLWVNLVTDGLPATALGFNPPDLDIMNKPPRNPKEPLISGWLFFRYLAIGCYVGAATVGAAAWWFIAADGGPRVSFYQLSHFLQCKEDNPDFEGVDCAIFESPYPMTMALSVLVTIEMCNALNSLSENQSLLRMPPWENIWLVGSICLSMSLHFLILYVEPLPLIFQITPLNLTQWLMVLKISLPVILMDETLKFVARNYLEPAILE
Protocol: (§1) Measurements were performed in cardiac SR microsomes (guinea pig) and in whole tissue homogenates (rat). Cardiac preparations included SERCA2a and PLN. To test for PLN involvement in the effect of compounds, SERCA1 activity was measured in PLN-free microsomes (from guinea pig skeletal muscle) before and after reconstitution with the synthetic PLN1–32 inhibitory fragment at a ratio of 300:1 for PLN/SERCA. […] Either an increase in Vmax (rat) or a decrease in KdCa (increased Ca^2+ affinity) (guinea pig) stands for enhancement of SERCA function. […]
Left ventricles (LV) were dissected from rat and guinea -pig of healthy and failing preparations and frozen until use. Tissues were homogenized, subjected to centrifugation to obtain SR -enriched microsomes and sarcomeric proteins were extracted, as previously described 4. […]
In the case of rat hearts, cardiac homogenates were used to have sufficient material to replicate the experiments within a single animal. Hearts were excised from rats eight weeks after STZ injection. LV tissues from healthy and STZ rats were homogenized (1 g in 4 ml buffer) in a medium containing 300 mM sucrose, 50 mM K-phosphate, 10 mM NaF, 0.3 mM PMSF, 0.5 mM DTT, pH 7, and centrifuged at 35,000 g for 30 min. The final pellet was resuspended in the same buffer.
(§2) SERCA2a ATPase activity was measured as the rate of 32P-ATP release at multiple Ca2+ concentrations (100-2000 nM) in the absence and presence of tested compounds, as previously described5. Increasing concentrations of each compound were pre-incubated with 2 μg of cardiac preparations for 5 min at 4° C in 80 μl of a solution containing 100 mM KCl, 5 mM MgCl2, 1 μM A23187, 20 mM Tris, pH 7.5. Then, 20 μl of 5 mM Tris-ATP containing 50 nCi of 32P-ATP (3-10 Ci/mmol, Perkin Elmer) were added. The ATP hydrolysis was continued for 15 min at 37°C and the reaction was stopped by acidification with 100 μl of 20% ice-cold perchloric acid. 32P was separated by centrifugation with activated charcoal (Norit A, Serva) and the radioactivity was measured. SERCA2a-dependent ATPase activity was identified as the portion of total hydrolytic activity inhibited by cyclopiazonic acid (CPA, 10 µM). Technical replicates were used to ensure the reliability of single values. […]

SERCA2a [3] = biological target: T3, SERCA2a (Cavia porcellus, UniProt A0A286XFU8); assay: SERCA2a ATPase activity, Ca2+ dependency in cardiac SR microsomes from healthy guinea pigs; type: biochemical, guinea pig; conditions: for SERCA2a KdCa reduced by / SERCA2a Vmax: 1 nM
T3 construct: from tissue; host or cells: guinea pig left ventricle, SR-enriched microsomes
T3 sequence (A0A286XFU8 entry or part of it): as the sequence (P11507 1-997 isoform P11507-2) above, with A219V, I392M, Q396H, V402I, A470V, P535L, S713A, I889V counted along it
Protocol: SERCA2a ATPase activity was assessed in SR preparations from healthy guinea pig hearts. Ca^2+ dependency of ATPase activity was measured, and kinetic parameters (KdCa and Vmax) were estimated at compound concentrations of 10 and 100 nM.
[…] […] Data are the mean ± SEM. *p < 0.05 (one-way RM ANOVA plus post hoc Tukey’s multiple comparisons or paired t-test).
as §1
Left ventricles (LV) were dissected from rat and guinea -pig of healthy and failing preparations and frozen until use. Tissues were homogenized, subjected to centrifugation to obtain SR -enriched microsomes and sarcomeric proteins were extracted, as previously described 4.
In the case of guinea-pig hearts, LV tissues were homogenized in 4 volumes of 10 mM NaHCO3, 1 mM PMSF, 10 μg/ml aprotinin and leupeptin (pH 7) and centrifuged at 12,000g for 15 minutes. Supernatants were filtered and centrifuged at 100,000 g for 30 min. Contractile proteins were extracted by suspending the pellets with 0.6 M KCl, 30 mM histidine, pH 7 and further centrifugation at 100,000 g for 30 min.
Final pellets were reconstituted with 0.3 M sucrose, 30 mM histidine, pH 7, to obtain SR-enriched […]
as §2

| Compound | pIC50 [1] | SERCA2a KdCa (SERCA2a [2]; Cpd 100 nM) [nM] | SERCA2a Vmax (µmol/min/mg) (SERCA2a [2]; Cpd 100 nM) | SERCA2a KdCa (SERCA2a [2]; Cpd 300 nM) [nM] | SERCA2a Vmax (µmol/min/mg) (SERCA2a [2]; Cpd 300 nM) | SERCA2a KdCa (SERCA2a [2]; Cpd 500 nM) [nM] | SERCA2a Vmax (µmol/min/mg) (SERCA2a [2]; Cpd 500 nM) | SERCA2a KdCa (SERCA2a [2]; Cpd 1000 nM) [nM] | SERCA2a Vmax (µmol/min/mg) (SERCA2a [2]; Cpd 1000 nM) | SERCA2a KdCa reduced by (SERCA2a [3]) [%] | SERCA2a Vmax (SERCA2a [3]) | SERCA2a Stimulation @100 nM (DELTA% KdCa) (SERCA2a [3]; 100 nM) [%] |
| --- | --- | --- | --- | --- | --- | --- | --- | --- | --- | --- | --- | --- |
| C[C@]12CC[C@H](CCCC(=O)O)C[C@@H]1[C@@H](O)C[C@@H]1[C@@H]2CC[C@]2(C)C(=O)CC[C@@H]12 [Compound 5] | < 4.00 | 221 ± 24 | 0,371 ± 0,021 µmol/min/mg | 221 ± 21 | 0,384 ± 0,023 µmol/min/mg | 220 ± 24 | 0,374 ± 0,031 µmol/min/mg | 219 ± 32 | 0,377 ± 0,029 µmol/min/mg | 16 | without affecting Vmax | -21 |
| C[C@]12CC[C@H](CC(=O)O)C[C@@H]1[C@@H](O)C[C@@H]1[C@@H]2CC[C@]2(C)C(=O)CC[C@@H]12 [Compound 8] | < 4.00 | 214 ± 17 | 0,344 ± 0,038 µmol/min/mg | 210 ± 13 | 0,366 ± 0,027 µmol/min/mg | 260 ± 35 | 0,313 ± 0,028 µmol/min/mg | 273 ± 32 | 0,320 ± 0,020 µmol/min/mg | 14 | without affecting Vmax |  |

From publication PMC9150102 (Journal of Medicinal Chemistry, 2022)
